This experiment has as its system Schwanniomyces castellii strain ATCC 26077. Nature of the experiment: Mutagenic treatment, mutants resistant to 2-deoxy-glucose on potato starch agar. Type of experiment: cell-based, Schwanniomyces castelli. The settings on record: EMS treatment. As to the method: The present invention also relates to the production of a novel strain of Schwanniomyces castellii. The mutant strain Schwanniomyces castellii NCYC 1461 was produced by treating a known strain, Schwanniomyces castellii ATCC 26077 with known mutagenic agents. The survivors were cultured on potato starch agar in the presence of concentrations of deoxyglucose at least as high as 10-^3 molar. […] Accordingly, the selection of the mutant strain is particularly desirable in the production of the above-mentioned culture filtrate having amylolytic enzyme activity. By means of such a selection there is a large proportionate increase in the relative amount of alpha-amylase present in the clarified culture filtrate. This novel strain of Schwanniomyces castellii is available upon request from the Yeast Collection of the National Collection of Yeast Cultures Depository ("NCYC"), Food Research Institute, Norwich, Norfolk, England. The ascession number of that organism in the above-mentioned repository is NCYC 1461. Schwanniomyces castellii strain NCYC 1461 is one of a number of mutant strains of Schwanniomyces castellii that .were produced by way of the above-outlined mutagenic treatment of Schwanniomyces castellii strain ATCC 26077. The particulars of the mutagenic treatments are detailed below in Table III which indicates the time of exposure, the percent survival rate, and the frequency of mutation for both of the treatments employed.

For `CCOS(C)(=O)=O` [EMS], the “% Survival” value runs as follows: (time of exposure 30 min) 66%; (time of exposure 60 min) 14%. Further, the Frequency of mutation was 10^-3 (time of exposure 30 min) and 2×10^-4 (time of exposure 60 min).

These data come from patent publication EP0125615B1, “Schwanniomyces castellii strains and brewing process” (LABATT BREWING COMPANY LIMITED, priority 1983, dated 1984).
